Molecules are shown by their SMILES.

In this test the test system is S. aureus isolates. Kind of test: Vitek AST cards MIC. The class given is cell-based. The note with it: 3/5 strains classified as benzyl-penicillin resistant and oxacillin sensitive by Vitek cards. Here is the method: Twenty different strains of S. aureus (10 MRSA and 10 MSSA strains, confirmed with cefoxitin discs and Vitek-2) were propagated. A loopful of growth (1 μL) was removed from 24-hour plates and suspended in BacT/ALERT SA culture media (8 ml in a glass screw-capped tube). The tubes were vortexed well and incubated at 36° C. for 6 hours. The OD of each suspension was measured at 660 nm and adjusted to approximately the same density (0.50-0.75 OD; sample #12166 was only 0.28). 50 μM BOCILLIN™-FL (0.1 ml) was placed into each of 20 labeled microfuge tubes. A sample of each strain (0.9 ml) was added to each tube, mixed, and incubated at 37° C. for 30 minutes. The reaction mixture was then removed and added to a second set of tubes containing 0.2 ml of an oil blend (1.000 part type DF immersion oil plus 0.875 part Drakeol 5 mineral oil). The tubes were centrifuged for 2 minutes at 10,000 rpm in an A-8-11 rotor (Eppendorf 5417R). The supernatant and most of the oil was aspirated with a vacuum device. The remaining oil was removed using a Gilson P200 tip and the pellet was resuspended in 100 μl PBS. The cells were transferred to an acrylic cuvette containing 3 ml PBS and read in the FluoroLog 3 system using the FluoroScan “Bocillin” points listed in Table 3. Additionally, Vitek AST cards were run on each of the 20 isolates (from the same 24 hour plates).

Turning to `Cc1onc(-c2ccccc2)c1C(=O)N[C@@H]1C(=O)N2[C@@H]1SC(C)(C)[C@@H]2C(=O)O` [oxacillin], the oxacillin MIC was 0.5 mg/L.

(Values after US10988792B2, “Methods for antimicrobial resistance determination” (bioMerieux, Inc., priority 2009, dated 2021).)
